The values below come from patent publication US7608716B2, “Pyrazolonaphthyridine derivative” (Aska Pharmaceutical Co., Ltd., priority 2002, dated 2009).

Data set [1] relates to lung eosinophil infiltration. Put plainly: Inhibition of lung eosinophil infiltration (OVA-sensitized, BALF). It is filed as in vivo, Hartley guinea-pigs. To be noted: Cavia porcellus, guinea-pigs, oral, 1 hour before OVA inhalation, BALF eosinophils at 24 hours, read-out: Inhibition of Lung Eosinophil Infiltration ED50: mg/kg orally. The protocol:
Hartley guinea-pigs were sensitized by inhaling twice 1% ovalbumin (OVA) in a physiological saline for 10 minutes with a nebulizer (Atom Medical Corporation, Japan) at an interval of 1 week. The animals were orally given a suspension of test compounds at a dose of 0.03 to 3 mg/2 mL/kg one week after the final sensitization. One hour later, the animals were exposed to antigens by inhalation of 2% OVA in a physiological saline for 5 minutes with a nebulizer. Thirty minutes before the antigen challenge, the animals were intraperitoneally pretreated with pyrilamine at a dose of 10 mg/kg to avoid fatality due to anaphylactic shock. Bronchoalveolar lavage fluid (BALF) samples were collected 24 hours after the exposure by inhalation of antigens, and eosinophils were counted.

The test system of data set [2] is actively sensitized guinea pigs. Kind of data set: Inhibition of antigen-induced immediate asthmatic response (airway resistance, Konzett-Rossler). In kind it is in vivo, Hartley guinea pigs. Particulars: Cavia porcellus, oral, 60 minutes prior to antigen-challenge, reduction of increase in airway resistance, read-out: Inhibition of Asthmatic response ED50: mg/kg orally. The procedure:
Male Hartley outbred guinea pigs were sensitized by administering intraperitoneally physiological saline (0.5 ml) containing ovalbumin (1 mg, antigen) and 5×10^9 inactivated Bordetella pertussis dead cells (adjuvant). Eleven to thirteen days after the first sensitization, 0.05 ml of an ovalbumin solution (1 mg/ml) (ovalbumin is dissolved in physiological saline) was administered to the lateroabdominal region of each guinea pig intracutaneously. An establishment of sensitization was checked relying on cutaneous reaction. Only guinea pigs wherein significant reddening responses occurred 5 to 10 minutes later were employed in the next measurement test for airway resistance.
The guinea pigs (3 animals per group) actively sensitized in the above step (1) were employed to measure for their airway pressure according to Konzett-Rossler method (Arch. Exp. Path. Pharmakol., 195, 71 (1940)).
Thirteen days after the final sensitization, guinea pigs fasted overnight, and were on the next day anesthetized with a pentobarbital solution (30 mg/1.2 ml/kg, dissolved in physiological saline, intraperitoneal administration). After the guinea pigs were fixed in a supine position, their trachea was incised followed by insertion with one port of a 4-port cannula. Among the remaining 3 ports, 2 ports were connected to an artificial respirator (Model 683, Harvard). The animals were ventilated with 10 ml/kg of air per ventilation at a rate of 60 beats/min via the artificial respirator from the cannula. One port remainder was connected to a respiratory amplifier (AR-601G, Nihon Kohden, Japan) via an airflow resistance tube (TV-241T, Nihon Kohden, Japan) and a differential pressure transducer (TP-602T, Nihon Kohden, Japan) connected with a control box (RY-111S, Nihon Kohden, Japan). From a catheter inserted into a left carotid artery, blood pressures were monitored with a blood pressure measurement unit (AP641G, NEC Corp., Japan) via a blood pressure transducer (TP-300T, Nihon Kohden, Japan), and heart rates were recorded on a thermal recorder (WT-685G, Nihon Kohden, Japan), relying on blood pressure pulse waves after being led to a cardiograph unit (AT601G, Nihon Kohden, Japan).
After airway pressure became stable, an ovalbumin solution (1 mg/ml, dissolved in physiological saline) was administered at a dose of 1 ml/kg via a tube with which the right jugular vein of guinea pigs was cannulated.
Each test compound was suspended in 0.5% CMC-Na solution and administered orally with an oral sound at a dose of 0.03 to 20 mg/2 ml/kg 60 minutes prior to the antigen-challenge. Control groups received only 0.5% CMC-Na solution in an equivalent amount. The pentobarbital-anesthetization and tracheal incision were conducted 30 minutes prior to the antigen-challenge.
Each percent reduction of increase in airway resistance (each test compound-administered group versus control group) was calculated according to the equation given below. ED50 was obtained by Probit method.

In a further data set the target is T1, CYP3A4 (Homo sapiens, UniProt P08684).
T1 construct: purchased BD Biosciences, NJ, USA; host or cells: CYP3A4-expressing system microsomes
T1 sequence (P08684 whole entry): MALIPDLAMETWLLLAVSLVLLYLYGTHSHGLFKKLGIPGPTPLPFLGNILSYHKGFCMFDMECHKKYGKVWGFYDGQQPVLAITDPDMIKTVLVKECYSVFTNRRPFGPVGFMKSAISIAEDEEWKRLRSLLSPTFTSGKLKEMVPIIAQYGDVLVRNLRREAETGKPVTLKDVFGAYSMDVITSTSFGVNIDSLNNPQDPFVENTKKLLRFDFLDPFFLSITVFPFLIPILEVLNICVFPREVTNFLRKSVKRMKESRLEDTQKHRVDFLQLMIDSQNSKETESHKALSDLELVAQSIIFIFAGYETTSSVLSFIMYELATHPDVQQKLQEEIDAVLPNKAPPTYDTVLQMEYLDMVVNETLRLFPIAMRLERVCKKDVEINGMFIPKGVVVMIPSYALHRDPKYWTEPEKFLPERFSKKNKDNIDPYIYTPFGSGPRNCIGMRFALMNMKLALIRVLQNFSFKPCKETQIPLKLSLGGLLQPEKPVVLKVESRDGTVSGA
Put plainly: Inhibition of drug-metabolizing enzyme CYP3A4 (CYP3A4/BFC kit). It is filed as in vitro ADME. Particulars: CYP3A4-expressing microsomes, BFC substrate, 37° C., 30 minutes; read-out: Inhibition of Drug-Metabolizing Enzymes (IC50; μM) CYP3A4. The protocol:
(§1) The inhibitory effect on CYP2D6 and CYP3A4 was determined using High Throughput Inhibitor Screening Kits: CYP2D6/AMMC and CYP3A4/BFC (both from BD Biosciences, NJ, USA). Briefly, each of NADPH regenerating systems, cofactors, and test compounds was dispensed into 96-well plates, followed by addition of each of fluorescent substrates, AMMC (CYP2D6) or BFC (CYP3A4). To each well were added CYP2D6-expressing system microsomes or CYP3A4-expressing system microsomes, and the plates were incubated at 37° C. for 30 minutes, and then read for fluorescent signals (CYP2D6: ex=390 nm, em=460 nm; CYP3A4: ex=409 nm, em=538 nm wherein excitation wavelength: ex and emission wavelength: em). Thus, each inhibitory efficacy on enzymes CYP2D6 and CYP3A4 was determined. Roflumilast was used for the reference compound in this assay.

The subject of data set [3] is lung neutrophil infiltration. Kind of data set: Inhibition of lung neutrophil infiltration (LPS inhalation, BALF). It is filed as in vivo, Hartley guinea-pigs. Particulars: Cavia porcellus, guinea-pigs, oral, 1 hour before LPS inhalation, BALF neutrophils at 24 hours, read-out: Inhibition of Lung Neutrophil Infiltration ED50: mg/kg orally. The protocol: Hartley guinea-pigs were orally received a suspension of test compounds at a dose of 0.03 to 3 mg/2 mL/kg. One hour later, the animals were received 0.1 mg/mL lipopolylsaccharide (LPS) in a physiological saline via an inhalational route with a nebulizer for 30 minutes. Twenty-four hours after the LPS inhalation, BALF samples were collected, and neutrophils were counted.

The target in another data set is T2, CYP2D6 (Homo sapiens, UniProt P10635).
T2 construct: purchased BD Biosciences, NJ, USA; host or cells: CYP2D6-expressing system microsomes
T2 sequence (P10635 whole entry): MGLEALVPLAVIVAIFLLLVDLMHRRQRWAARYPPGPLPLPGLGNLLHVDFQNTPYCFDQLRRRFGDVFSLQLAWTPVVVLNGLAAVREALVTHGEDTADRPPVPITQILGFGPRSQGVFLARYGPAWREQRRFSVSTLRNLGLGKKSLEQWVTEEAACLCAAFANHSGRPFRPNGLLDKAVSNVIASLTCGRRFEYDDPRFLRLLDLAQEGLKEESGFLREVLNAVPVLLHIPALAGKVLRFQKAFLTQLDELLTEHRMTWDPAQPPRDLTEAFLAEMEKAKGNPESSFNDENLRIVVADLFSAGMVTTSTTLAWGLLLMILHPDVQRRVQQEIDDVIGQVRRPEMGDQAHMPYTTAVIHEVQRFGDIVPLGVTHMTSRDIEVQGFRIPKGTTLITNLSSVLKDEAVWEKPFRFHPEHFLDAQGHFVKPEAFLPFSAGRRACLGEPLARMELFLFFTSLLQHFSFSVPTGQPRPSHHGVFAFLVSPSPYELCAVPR
Put plainly: Inhibition of drug-metabolizing enzyme CYP2D6 (CYP2D6/AMMC kit). It is filed as in vitro ADME. To be noted: CYP2D6-expressing microsomes, AMMC substrate, 37° C., 30 minutes; read-out: Inhibition of Drug-Metabolizing Enzymes (IC50; μM) CYP2D6. The procedure:
as §1

Another data set has as its system TNF-α production. Put plainly: Inhibition of TNF-α production in galactosamine- and LPS-stimulation. It is filed as in vivo. Particulars: Mus musculus; C3H/HeN mice, oral, 1 hour before galactosamine/LPS i.v.; serum TNF-α by ELISA 1 hour later; read-out: Inhibition of TNF-α production ED50: mg/kg orally. The protocol:
A suspension of each test compound in 0.5% CMC-Na solution was administered orally to C3H/HeN mice at a dose of 0.10 to 10 mg/kg. One hour later, the animals received intravenously galactosamine at a dose of 800 mg/kg and LPS at a dose 5 μg/kg to raise the induction of TNF-α production. One hour later after the galactosamine- and LPS-administration, amounts of TNF-α in serum samples were measured by ELISA, and ED50 was obtained. Roflumilast and SB207499 were used for the reference compounds in this assay.
(In general: In an ELISA, binding on a coated surface is turned into a signal by an enzyme label.)

Another data set relates to Beagle dogs. Kind of data set: Emetic action on dogs. To be noted: oral, 1 mg/kg. In kind it is in vivo. The protocol:
Beagle dogs received a suspension of each test compound in 0.5% CMC-Na solution orally at a dose of 1 mg/2 mL/kg.

On to `O=C(Nc1c(Cl)cncc1Cl)c1ccc(OC(F)F)c(OCC2CC2)c1` [Roflumilast, 3-(cyclopropylmethoxy)-N-(3,5-dichloro-4-pyridyl)-4-(difluoromethoxy)benzamide, reference compound], for which the ED50 in data set [1] is 0.36 mg/kg; in data set [2], 0.66 mg/kg; in data set [3] it was 0.98 mg/kg; with TNF-α production it was 0.26 mg/kg. In addition, the concentration for half-maximal inhibition (IC50) (commonly the concentration needed to halve the response being measured) on CYP3A4 was 0.98 µM; at CYP2D6 it was 9.1 µM. The Occurrence of emesis with Beagle dogs is 2 animals among 3 were afflicted with emetic reactions.
